Reference: US20150175599A1, “FAAH Inhibitors” (Ironwood Pharmaceuticals, Inc., priority 2010, published 2015)
Where two headings read alike, the source gives them in different places.

Target: T1, FAAH (Rattus norvegicus, UniProt P97612)
T1 construct: For the assay of FAAH activity in rat brain membrane (RBM) homogenates; tissue Charles River (animals); host or cells: rat whole brain, membrane fraction
T1 sequence (P97612 1-579): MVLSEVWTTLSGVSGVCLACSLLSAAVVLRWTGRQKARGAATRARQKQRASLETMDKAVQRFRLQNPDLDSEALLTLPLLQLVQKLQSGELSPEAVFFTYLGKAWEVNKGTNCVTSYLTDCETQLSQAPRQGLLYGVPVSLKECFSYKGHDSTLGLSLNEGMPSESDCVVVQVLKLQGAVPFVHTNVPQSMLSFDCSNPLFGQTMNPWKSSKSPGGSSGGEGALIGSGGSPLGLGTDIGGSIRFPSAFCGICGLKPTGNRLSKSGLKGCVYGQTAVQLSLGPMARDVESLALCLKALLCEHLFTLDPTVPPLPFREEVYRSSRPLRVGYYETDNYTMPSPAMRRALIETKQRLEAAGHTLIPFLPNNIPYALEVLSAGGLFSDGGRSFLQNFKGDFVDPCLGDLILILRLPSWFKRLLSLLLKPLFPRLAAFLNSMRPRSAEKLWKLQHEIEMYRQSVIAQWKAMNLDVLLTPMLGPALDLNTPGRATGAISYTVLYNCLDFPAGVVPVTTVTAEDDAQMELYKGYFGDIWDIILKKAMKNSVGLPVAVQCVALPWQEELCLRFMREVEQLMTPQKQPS
Experiment: FAAH inhibition, rat brain membrane homogenate assay
Format: biochemical
Experimental: Adult rats (Charles River CD strain, female, 200 g) were anaesthetized with isofluorane and rapidly decapitated. Each brain was quickly removed and chilled in tubes (3 brains per tube) on ice. About 25 mL of “homogenization buffer” (20 mM HEPES buffer, pH 7.0, with 1 mM MgCl2) was added to 15 to 20 g of brain. The brains were homogenized on ice for 1 minute using an Omni GLH homogenizer (Omni International, Marietta, Ga.). The homogenates were then transferred to three centrifuge tubes and centrifuged at 36,500 g for 20 minutes at 4° C. The supernatant was discarded and each pellet was re-suspended in 25 mL homogenization buffer. The re-suspended material was again centrifuged (36,500 g, 20 minutes at 4° C.). Pellets were combined by re-suspension in 10 mL of homogenization buffer and incubated in a 37° C. water bath for 15 minutes. The tubes were then placed on ice for 5 minutes followed by centrifugation at 36,500 g for 20 minutes at 4° C. The supernatant was discarded and the membrane pellets were then re-suspended in 40 mL of “re-suspension buffer” (50 mM Tris-HCl buffer, pH 7.4, containing 1 mM EDTA and 3 mM MgCl2). A Bradford Protein assay was performed to determine protein concentration. The protein was aliquotted into screw cap Cryo tubes each containing −400 μL, flash-frozen in liquid nitrogen and stored at −80° C. until used for the assay. A similar protocol was used to obtain brain membrane homogenates from mice
FAAH activity was assayed in the respective homogenates described herein (Rat brain, Mouse brain or Human brain) with certain of the exemplary compounds described above using a modification of the method of Omeir et al. (1995 Life Sci. 56:1999) and Fowler et al. (1997 J. Pharmacol. Exp. Ther. 283:729). For the assay of FAAH activity in rat brain membrane (RBM) homogenates, RBM homogenates (7 μg protein in 20 μL final volume of 10 mM Tris pH 6.5) were mixed with 180 μL of a mixture of the following: […] unlabelled anandamide (AEA), 0.03 Ci radio labeled anandamide [ethanolamine 1-^3H](40-60 Ci/mmol; product number ART-626, American Radiolabelled Chemicals, St. Louis, Mo.), 1 mg/mL Bovine Serum Albumin (fatty acid-free BSA, electrophoresis grade, Sigma, St. Louis, Mo.), 10 mM Tris-HCl (pH 6.5), and 1 mM EDTA in the presence and absence of test compounds (vehicle was DMSO at a final concentration of 1%) and incubated for 10 minutes at 37° C. Samples were placed on ice to terminate the reactions.
The ^3H-ethanolamine product and un-reacted ^3H-anandamide substrate were then separated by either: (1) using chloroform/methanol extraction or (2) passing the reaction mixture through a glass fiber filter containing activated charcoal. Samples were extracted with chloroform/methanol by adding 0.4 mL of chloroform/methanol (1:1 v/v), vigorously mixing the samples, and separating the aqueous and organic phases by centrifugation. Radioactivity (corresponding to FAAH-catalyzed breakdown of ^3H-anandamide) found in aliquots (0.2 mL) of the aqueous phase was determined by liquid scintillation counting with quench correction. IC50 values were determined as described by Jonsson et al. (2001 Br. J Pharmacol. 133:1263). Alternatively, reactions were purified using a modification of the solid-phase extraction method described by Wilson et al (2003 Anal. Biochem. 318: 270). This method was modified as follows: after reactions were incubated at 37° C. for 10 minutes and chilled on ice, the reaction mixtures were acidified by adding 10 μL of sodium phosphate solution[0.5M (pH 2.0)]. Next, 90 μL aliquots of the acidified reaction mixtures were applied to activated charcoal (that had been previously washed with methanol as described by Wilson et al. (supra)) containing 80 μL of water on top of a glass fiber filter, centrifuged, and the radioactivity in the eluate was counted as described previously by Wilson et al. (supra). […]

[1] = rat brain homogenate, average activity, read-out: Rat Brain Extract FAAH IC50

Structure (SMILES)	IC50 [1] [µM]	IC50 [µM]
COc1cc(NC(=O)C(=O)c2c(C)n(Cc3ccc(Cl)cc3)c3cc(C)c(OC)cc23)ccn1 [Compound 74, 2-(1-(4-chlorobenzyl)-5-methoxy-2,6-dimethyl-1H-indol-3-yl)-N-(2-methoxypyridin-4-yl)-2-oxoacetamide]	< 0.1	
COCc1ccc2c(c1)c(C(=O)C(=O)Nc1ccnc(OC)c1)c(C)n2Cc1ccc(Cl)cc1 [Compound 11, 2-(1-(4-chlorobenzyl)-5-(methoxymethyl)-2-methyl-1H-indol-3-yl)-N-(2-methoxypyridin-4-yl)-2-oxoacetamide]	< 0.1	
COc1cc(NC(=O)C(=O)c2c(C)n(Cc3ccc(Cl)cc3)c3ccc(CN(C)C)cc23)ccn1 [Compound 26, 2-(1-(4-chlorobenzyl)-5-((dimethylamino)methyl)-2-methyl-1H-indol-3-yl)-N-(2-methoxypyridin-4-yl)-2-oxoacetamide]	0.1 to 1	
COc1cc(NC(=O)C(=O)c2c(C)n(Cc3ccc(Cl)cc3)c3ccc(CO)cc23)ccn1 [Compound 8, 2-(1-(4-chlorobenzyl)-5-(hydroxymethyl)-2-methyl-1H-indol-3-yl)-N-(2-methoxypyridin-4-yl)-2-oxoacetamide]	< 0.1	
COc1cc(NC(=O)C(=O)c2c(C)n(Cc3ccc(Cl)cc3)c3ccc(C(=O)N(C)C)cc23)ccn1 [Compound 6, 1-(4-chlorobenzyl)-3-(2-(2-methoxypyridin-4-ylamino)-2-oxoacetyl)-N,N,2-trimethyl-1H-indole-5-carboxamide]	0.1 to 1	
COc1cc(NC(=O)C(=O)c2c(C)n(Cc3ccc(Cl)cn3)c3ccc([N+](=O)[O-])cc23)ccn1 [Compound 62, 2-(1-((5-chloropyridin-2-yl)methyl)-2-methyl-5-nitro-1H-indol-3-yl)-N-(2-methoxypyridin-4-yl)-2-oxoacetamide]	< 0.1	
COc1cc(NC(=O)C(=O)c2c(C)n(Cc3ncc(F)cc3F)c3cc(F)c(OC)cc23)ccn1 [Compound 101, 2-(1-((3,5-difluoropyridin-2-yl)methyl)-6-fluoro-5-methoxy-2-methyl-1H-indol-3-yl)-N-(2-methoxypyridin-4-yl)-2-oxoacetamide]	< 0.1	
COc1ccc2c(c1)c(C(=O)C(=O)Nc1ccnc(OC)c1)c(C)n2Cc1ccccn1 [Compound 77, 2-(5-methoxy-2-methyl-1-(pyridin-2-ylmethyl)-1H-indol-3-yl)-N-(2-methoxypyridin-4-yl)-2-oxoacetamide]	< 0.1	
COc1cc(NC(=O)C(=O)c2c(C)n(Cc3ncc(Cl)cc3Cl)c3ccccc23)ccn1 [Compound 31, 2-(1-((3,5-dichloropyridin-2-yl)methyl)-2-methyl-1H-indol-3-yl)-N-(2-methoxypyridin-4-yl)-2-oxoacetamide]	< 0.1	
COc1ccc2c(c1)c(C(=O)C(=O)Nc1ccnc(OC)c1)c(C)n2Cc1ncc(Cl)cc1OC [Compound 100, 2-(1-((5-chloro-3-methoxypyridin-2-yl)methyl)-5-methoxy-2-methyl-1H-indol-3-yl)-N-(2-methoxypyridin-4-yl)-2-oxoacetamide]	< 0.1	
COc1cc(NC(=O)C(=O)c2c(C)n(Cc3ccc(Cl)cc3)c3cc(OC)c(OC)cc23)ccn1 [Compound 44, 2-(1-(4-chlorobenzyl)-5,6-dimethoxy-2-methyl-1H-indol-3-yl)-N-(2-methoxypyridin-4-yl)-2-oxoacetamide]	< 0.1	
COc1cc(NC(=O)C(=O)c2c(C)n(Cc3ncc(F)cc3F)c3ccc(C)cc23)ccn1 [Compound 88, 2-(1-((3,5-difluoropyridin-2-yl)methyl)-2,5-dimethyl-1H-indol-3-yl)-N-(2-methoxypyridin-4-yl)-2-oxoacetamide]		< 0.1
COc1cc(NC(=O)C(=O)c2c(C)n(Cc3ccc(Cl)cn3)c3ccccc23)ccn1 [Compound 68, 2-(1-((5-chloropyridin-2-yl)methyl)-2-methyl-1H-indol-3-yl)-N-(2-methoxypyridin-4-yl)-2-oxoacetamide]	< 0.1	
COc1cc(NC(=O)C(=O)c2c(C)n(Cc3ccc(Cl)cc3)c3ccc([N+](=O)[O-])cc23)ccn1 [Compound 19, 2-(1-(4-chlorobenzyl)-2-methyl-5-nitro-1H-indol-3-yl)-N-(2-methoxypyridin-4-yl)-2-oxoacetamide]	< 0.1	
COc1ccc(Cn2c(C)c(C(=O)C(=O)Nc3ccnc(OC)c3)c3cc(OC)c(C)cc32)nc1 [Compound 96, 2-(5-methoxy-1-((5-methoxypyridin-2-yl)methyl)-2,6-dimethyl-1H-indol-3-yl)-N-(2-methoxypyridin-4-yl)-2-oxoacetamide]	< 0.1	
COc1cc(NC(=O)C(=O)c2c(C)n(Cc3ccc(Cl)cc3)c3cc(F)c(OC)cc23)ccn1 [Compound 72, 2-(1-(4-chlorobenzyl)-6-fluoro-5-methoxy-2-methyl-1H-indol-3-yl)-N-(2-methoxypyridin-4-yl)-2-oxoacetamide]	< 0.1	
COc1ccc2c(c1)c(C(=O)C(=O)Nc1cc(Cl)nc(OC)c1)c(C)n2Cc1ccc(Cl)cc1 [Compound 47, N-(2-chloro-6-methoxypyridin-4-yl)-2-(1-(4-chlorobenzyl)-5-methoxy-2-methyl-1H-indol-3-yl)-2-oxoacetamide]	< 0.1	
COc1cnc2c(c1)c(C(=O)C(=O)Nc1ccnc(OC)c1)c(C)n2Cc1ccc(Cl)cc1Cl [Compound 42, 2-(1-(2,4-dichlorobenzyl)-5-methoxy-2-methyl-1H-pyrrolo[2,3-b]pyridin-3-yl)-N-(2-methoxypyridin-4-yl)-2-oxoacetamide]	< 0.1	
COc1cc(NC(=O)C(=O)c2c(C)n(Cc3ccc(Cl)cc3)c3cccc(OC)c23)ccn1 [Compound 45, 2-(1-(4-chlorobenzyl)-4-methoxy-2-methyl-1H-indol-3-yl)-N-(2-methoxypyridin-4-yl)-2-oxoacetamide]	< 0.1	
COc1cc(NC(=O)C(=O)c2c(C)n(Cc3ccc(Cl)cn3)c3ccc(N)cc23)ccn1 [Compound 65, 2-(5-amino-1-((5-chloropyridin-2-yl)methyl)-2-methyl-1H-indol-3-yl)-N-(2-methoxypyridin-4-yl)-2-oxoacetamide]	< 0.1	
COc1cc(NC(=O)C(=O)c2c(C)n(Cc3ccc(Cl)cn3)c3cc(C)c(OC)cc23)ccn1 [Compound 95, 2-(1-((5-chloropyridin-2-yl)methyl)-5-methoxy-2,6-dimethyl-1H-indol-3-yl)-N-(2-methoxypyridin-4-yl)-2-oxoacetamide]	< 0.1	
COc1cc(NC(=O)C(=O)c2c(C)n(Cc3ccc(Cl)cc3)c3ncc(C)cc23)ccn1 [Compound 76, 2-(1-(4-chlorobenzyl)-2,5-dimethyl-1H-pyrrolo[2,3-b]pyridin-3-yl)-N-(2-methoxypyridin-4-yl)-2-oxoacetamide]	< 0.1	
